Results: patent publication US9943528B2 (MAPREG, priority 2016, dated 2018)

Legend:
[1] = tested on: Wistar Kyoto (WKY) rats; experiment: Open-field arena (OFA) in WKY rats, acute treatment; assay type: in vivo, rat; settings: MAP4343 10 mg/kg s.c., fluoxetine 10 mg/kg i.p., ketamine 30 mg/kg i.p.
Description: (§1) After a 6-day period of acclimatization, all experimental groups received daily successive subcutaneous (250 μl per rat) and intraperitoneal (1 ml/kg) injections. WI rats received injection of vehicle (sesame oil+saline) while WKY rats were randomly assigned to […] experimental groups, as follow: KWY rats receiving only vehicle (sesame oil+saline) and WKY rats treated with MAP4343 (10 mg/kg, s.c.; rats received in parallel i.p. injections of saline), fluoxetine (10 mg/kg i.p., rats received in parallel s.c. injections of sesame oil) or ketamine (30 mg/kg, i.p.; rats received in parallel s.c. injections of sesame oil) (see FIG. 3).
(§2) After, a 6-day period of acclimatization, the acute phase of treatment started for 4 days during behavioral tests were performed (FIG. 3). All animals were injected 1 h 30 before the starting of behavioral test.
The animals were individually placed in the open field arena (OFA) (70×100×70 cm), with a central square (35×50 cm), located in a 50 lux illuminated room and videotaped during 3 min using a computerized system (VideoTrack V2.5, ViewPoint, Lyon, France).
OFA allows firstly the evaluation of total locomotor activity (LMA) thereby measuring the total distance travelled in the arena (in cm). Secondly, measurements of the activity in the center of the arena like (i) the number of entries in the center of arena and (ii) the total time spent in the center of arena (in sec) provide cues of anxiety-like behavior (Prut and Belzung, 2003). All these behavioral parameters were instantaneously measured automatically with the VideoTrack V2.5 software from the videos.

[2] = tested on: NMDA PCP site; experiment: CNS receptor binding assay, NMDA PCP site; settings: MAP4343 10 μM; [3H] TCP; rat cerebral cortex
Text: (§3) MAP4343 has been screened for in vitro affinity to 80 different CNS neurotransmitters receptors using various validated binding assays.

[3] = tested on: 80 different CNS neurotransmitters receptors; experiment: Screen for in vitro affinity to 80 different CNS neurotransmitters receptors; settings: 80 CNS neurotransmitters receptors, validated binding assays
Text: as §3

[4] = tested on: adult male Sprague Dawley rats; settings: U.S. Pat. No. 8,334,278, cited from earlier work
[5] = tested on: Wistar Kyoto (WKY) rats; experiment: Forced swimming test (FST) in WKY rats; assay type: in vivo, rat; settings: FIG. 6B
Description: as §1, with “([…];” for “(sesame oil+saline) and WKY rats treated with MAP4343 (10 mg/kg, s.c.;”
as §2
Rats were submitted to the forced swimming test (FST), according the procedure initially described by (Detke et al., 1995) and slightly modified by (Bianchi et al., 2002). Briefly, rats were individually placed into a Plexiglas cylinder (40 cm height, 20 cm diameter) containing 25 cm of water at 25±1° C., under 50 lux illumination. […] The pre-test and test sessions were recorded using a video camera placed above the cylinder for subsequent behavioral analysis. The immobility time (in sec) was blindly measured by two independent experimenters from recorded videos. […]

[6] = tested on: Noradrenergic α1; experiment: CNS receptor binding assay, α1; settings: MAP4343 10 μM; [3H] prazosin; rat cerebral cortex
Text: as §3

[7] = tested on: Noradrenergic α2; experiment: CNS receptor binding assay, α2; settings: MAP4343 10 μM; [3H] RX 821002; rat cerebral cortex
Text: as §3

CO[C@H]1CC[C@@]2(C)C(=CC[C@H]3[C@@H]4CC[C@H](C(C)=O)[C@@]4(C)CC[C@@H]32)C1 [MAP4343, 3β-methoxy-pregna-5-ene-20-one]
locomotor activity (total distance travelled in the open-field arena), change vs WKY receiving vehicle ([1]; 3 min, FIG. 5A): did not modify significantly the locomotor activity
number of entries in the central square of OFA, change vs WKY receiving only vehicle ([1]; FIG. 5B): +289%
time spent in the center of open-field vs WKY receiving vehicle ([1]; FIG. 5C): did not modify the low time spent in central square of arena
% Inhibition of control specific binding [2]: −10%
in vitro affinity for the tested receptors [3]: no significant affinity for any tested receptor
memory retention in NOR ([4]; naïve adult male Sprague Dawley rats): increases memory retention
memory deficit in the NOR test ([4]; social-isolated adult male Sprague Dawley rats): induces recovery of memory deficit
immobility time in FST, dose-ranging effect ([5]; MAP4343 1, 5, 10 and 15 mg/kg): dose-dependent decrease of immobility time
immobility time in FST, change vs WKY receiving vehicle alone ([5]; dose-ranging, MAP4343 15 mg/kg): −25%
% Inhibition of control specific binding [6]: 4%
% Inhibition of control specific binding [7]: 7%
